# Laboratory results published in PubChem BioAssay (NCI).
# “And” between values parts separate entries of the source, which are not always exact repeats. Equal entries are not always repeated.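 Values below derive from 48-hour exposures of cells grown in 96-well plates, with endpoints linearly interpolated between the two concentrations bracketing the appropriate inhibition level. Abbreviation: GI50, concentration required for 50% inhibition of growth. TGI is the concentration that stops growth completely.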
# How the values were obtained:
# Assay in all cases: NCI tumour cell line growth inhibition, 48 h
# [1] = test system: CAKI-1 renal
# [2] = test system: HOP-62 NSCLC
# [3] = test system: KM12 colon
# [4] = test system: SN12C renal
# [5] = test system: SNB-19 CNS
# [6] = test system: SR leukemia
# [7] = test system: BT-549 breast
# [8] = test system: HS 578T breast
# [9] = test system: MDA-MB-231 breast
# [10] = test system: MDA-MB-435
Structure (SMILES),TGI [1],TGI [2],TGI [3],TGI [4],TGI [5],TGI [6],GI50 [7],TGI [7],GI50 [1],GI50 [2],GI50 [8],TGI [8],GI50 [3],GI50 [9],TGI [9],GI50 [10],TGI [10],GI50 [4],GI50 [5],GI50 [6]
CC1=C(C(=O)Nc2cccc(C(F)(F)F)c2)C(c2ccccc2F)C(C(=O)Nc2cccc(C(F)(F)F)c2)=C(C)N1,25 µM,26.2 µM,14.8 µM,23.9 µM,25.8 µM,,,,,,,,,,,,,,,
CCOC(=O)C/C(N)=C(\C#N)C(=O)OCC,> 100 µM,,> 100 µM,> 100 µM,> 100 µM,> 100 µM,,,,,,,,,,,,,,
O=C(NC1CCNCC1)c1[nH]ncc1NC(=O)c1c(Cl)cccc1Cl,> 100 µM,> 100 µM,1.66 µM and > 10 µM,> 50.3 µM,> 60 µM,,588 nM and 471 nM,7.89 µM,14.9 µM and 4.09 µM,451 nM and 414 nM,307 nM and 329 nM,3.83 µM and > 2.71 µM,297 nM and 305 nM,312 nM and 276 nM,2.07 µM and > 3.95 µM,370 nM and 335 nM,1720 nM and 1580 nM,1240 nM and 387 nM,361 nM and 336 nM,
O=C(O)/C(=C/c1ccccc1[N+](=O)[O-])c1cccs1,> 100 µM,> 100 µM,> 100 µM,> 100 µM,> 100 µM,> 100 µM,,,,,,,,,,,,,,
Cc1nn2c(=O)n(-c3cccc(-n4nnc5c(-c6ccccc6)c(C)nn5c4=O)c3C)nnc2c1-c1ccccc1,> 100 µM,> 100 µM,,36.5 µM,> 100 µM,55.8 µM,,,,,,,,,,,,,,
Cc1ccc(SC2C(C)(C)N(C(C)C)P2(=O)N(C(C)C)C(C)C)cc1 (stereo not given),> 100 µM,> 100 µM,> 100 µM,> 100 µM,> 100 µM,31.4 µM,,,,,,,,,,,,,,
O=c1c2cc(Br)ccc2[nH]c(=S)n1-c1ccccc1,> 100 µM,> 100 µM,> 100 µM,> 100 µM,> 100 µM,,,,,,,,,,,,,,,
O=[N+]([O-])c1ccc(N/N=C/c2ccccc2O)nc1,8.37 µM,> 100 µM,> 100 µM,> 100 µM,> 100 µM,,6080 nM,> 100 µM,0.738 µM,4500 nM,> 100000 nM,> 100 µM,1190 nM,1460 nM,> 100 µM,3030 nM,> 100000 nM,2170 nM,3880 nM,
CN=c1ss/c(=N\C(=S)N(C)C)n1C1CCCCC1,> 31.6 µM,> 100 µM,> 31.6 µM,> 31.6 µM,> 31.6 µM,,,,,,,,,,,,,,,
COc1cc(-c2nccc3[nH]c(-c4cccc5[nH]ccc45)nc23)cc(OC)c1OC,14.6 µM,,13.4 µM,18.1 µM,20.6 µM,10.4 µM,,,< 0.01 µM,,< 10 nM,23.9 µM,< 10 nM,< 10 nM,17.1 µM,< 10 nM,< 10 nM,< 10 nM,< 10 nM,< 10 nM
CC(=O)n1cc(CC(C)O)c(=O)[nH]c1=O (stereo not given),> 100 µM,> 100 µM,> 100 µM,31.2 µM,> 100 µM,> 100 µM,,,,,,,,,,,,,,
Cc1ccc(S(=O)(=O)Nc2cccc(C)c2C)cc1,,> 100 µM,> 100 µM,> 100 µM,> 100 µM,> 100 µM,,,,,,,,,,,,,,
O=S1c2ccccc2N=C(c2ccc3ccccc3c2)CC1c1ccccc1F (stereo not given),> 100 µM,> 100 µM,> 100 µM,> 100 µM,> 100 µM,,,,,,,,,,,,,,,
